Patent publication US20250387369A1 (priority 2022, published 2025)
Where two headings read alike, the source gives them in different places.

What was measured:
Type in all cases: cell-based
[1] = tested on: SARS-COV-2 (a prototype having D614G mutation)
[2] = tested on: SARS-COV-2 (a prototype having D614G mutation); remark: listed apart in the source
[3] = tested on: SARS-COV-2 Omicron mutant BA.2 strain
[4] = tested on: SARS-COV-2 Omicron mutant BA.1 strain

Row | SMILES | IC50 [1] [µM] | IC50 [2] [µM] | IC50 [3] [nM] | IC50 [4] [µM]
1 | CC(C)(C)OC(=O)NCCCCCCC(C)(C(=O)O)c1c[nH]c2ccccc12 (centres unmarked) [Compound #13] | 1.1 |  |  | 
2 | COc1cc(COc2ccc3[nH]cc(CC(=O)O)c3c2)cc(OC)c1 [Compound #35] | 15.4 |  |  | 
3 | CC(C)C(=O)OC[C@H]1O[C@@H](n2ccc(NO)nc2=O)[C@H](O)[C@@H]1O [Molnupiravir] |  | 4.2 | 2800 | 4
